What was measured:
[1] = test system: CCRF-CEM; assay: NCI cancer screening, growth inhibition (SRB); type: cell-based; conditions: Leukemia, 48 hours exposure
[2] = test system: NCI-H23; assay: NCI cancer screening, growth inhibition (SRB); type: cell-based; conditions: Non-Small Cell Lung Cancer, 48 hours exposure
[3] = test system: NCI-H460; assay: NCI cancer screening, growth inhibition (SRB); type: cell-based; conditions: Non-Small Cell Lung Cancer, 48 hours exposure
[4] = test system: NCI-H522; assay: NCI cancer screening, growth inhibition (SRB); type: cell-based; conditions: Non-Small Cell Lung Cancer, 48 hours exposure
[5] = test system: COLO205; assay: NCI cancer screening, growth inhibition (SRB); type: cell-based; conditions: Homo sapiens, COLO 205, 48 h, read-out: Log10 GI50 (converted)
[6] = test system: HCT-116; assay: NCI cancer screening, growth inhibition (SRB); type: cell-based; conditions: Colon Cancer, 48 hours exposure
[7] = test system: HT29; assay: NCI cancer screening, growth inhibition (SRB); type: cell-based
[8] = test system: SP-268; assay: NCI cancer screening, growth inhibition (SRB); type: cell-based; conditions: 48 h, read-out: Log10 GI50 (converted)
[9] = test system: U251; assay: NCI cancer screening, growth inhibition (SRB); type: cell-based; conditions: CNS Cancer, 48 hours exposure
[10] = test system: MALME-3M; assay: NCI cancer screening, growth inhibition (SRB); type: cell-based; conditions: Melanoma, 48 hours exposure
[11] = test system: M14; assay: NCI cancer screening, growth inhibition (SRB); type: cell-based; conditions: Melanoma, 48 hours exposure
[12] = test system: UACC-257; assay: NCI cancer screening, growth inhibition (SRB); type: cell-based
[13] = test system: UACC-62; assay: NCI cancer screening, growth inhibition (SRB); type: cell-based; conditions: Melanoma, 48 hours exposure
[14] = test system: OVCAR-3; assay: NCI cancer screening, growth inhibition (SRB); type: cell-based; conditions: Homo sapiens, OVCAR-3, 48 h, read-out: Log10 GI50 (converted)
[15] = test system: OVCAR-5; assay: NCI cancer screening, growth inhibition (SRB); type: cell-based; conditions: Ovarian Cancer, 48 hours exposure
[16] = test system: ACHN; assay: NCI cancer screening, growth inhibition (SRB); type: cell-based; conditions: Renal Cancer, 48 hours exposure
[17] = test system: CAKI-1; assay: NCI cancer screening, growth inhibition (SRB); type: cell-based; conditions: Renal Cancer, 48 hours exposure
[18] = test system: UO-31; assay: NCI cancer screening, growth inhibition (SRB); type: cell-based; conditions: Renal Cancer, 48 hours exposure
[19] = test system: DU-145; assay: NCI cancer screening, growth inhibition (SRB); type: cell-based; conditions: Prostate Cancer; 48 hours exposure
[20] = test system: MCF7; assay: NCI cancer screening, growth inhibition (SRB); type: cell-based; conditions: Breast Cancer, 48 hours exposure
[21] = test system: Leukemia P388 cells; assay: In vivo treatment of leukemia P388 cells implanted ip in BDF1 mice
[22] = test system: colon cell lines; assay: NCI cancer screening, relative sensitivity (FIG. 4); type: cell-based; conditions: FIG. 4, certain colon cell lines
From the text: (§1) Bars extending to the right represent sensitivity of the cell line to (-)-OddC in excess of the average sensitivity of all tested cell lines. […] Bars extending to the left correspondingly imply sensitivity less than the mean. These cell lines can be easily determined from Table 2, as the log10 concentration will be preceded by a ">".

[23] = test system: each type of cancer cell tested; assay: as above; type: cell-based; conditions: FIG. 4, on the basis of GI50; at least one cell line of each type
From the text: as §1

[24] = test system: leukemia cell lines; assay: as above; type: cell-based; conditions: FIG. 4, certain leukemia cell lines
From the text: as §1

[25] = test system: prostate cancer cell lines; assay: as above; type: cell-based; conditions: FIG. 4, certain prostate cancer cell lines
From the text: as §1

[26] = test system: K2112; conditions: Colon Cancer; 48 hours exposure
[27] = test system: MDA-MB-231/ATCC; conditions: Breast Cancer; 48 hours exposure
[28] = test system: NCI-H322M; assay: cells; conditions: Homo sapiens, 48 h, read-out: Log10 GI50 (converted)
[29] = test system: K2112; assay: cells; conditions: 48 h, read-out: Log10 GI50 (converted)
[30] = 25 mg/kg ip, twice a day, days 1 to 5

## Nc1ccn([C@@H]2CO[C@H](CO)O2)c(=O)n1 [(-)-OddC, (-)-(2S,4S)-1-(2-hydroxymethyl-1,3-dioxolan-4-yl)cytosine]
[1]; Homo sapiens, CCRF-CEM, read-out: Log10 GI50 (converted)
  GI50: 0.229 µM
[1]
  Log10 TGI: > -4.00
[2]; Homo sapiens, NCI-H23, read-out: Log10 GI50 (converted)
  GI50: 12 µM
[2]
  Log10 TGI: > -4.00
[3]; Homo sapiens, NCI-H460, read-out: Log10 GI50 (converted)
  GI50: 47.9 µM
[3]
  Log10 TGI: > -4.00
[4]; Homo sapiens, NCI-H522, read-out: Log10 GI50 (converted)
  GI50: 0.871 µM
[4]
  Log10 TGI: > -4.00
[5]
  GI50: 93.3 µM
[6]
  Log10 TGI: > -4.00
[6]; Homo sapiens, HCT-116, read-out: Log10 GI50 (converted)
  GI50: 5.89 µM
[7]; Colon Cancer, 48 hours exposure
  Log10 TGI: > -4.00
[7]; Homo sapiens, HT-29, 48 h, read-out: Log10 GI50 (converted)
  GI50: > 100 µM
[8]
  GI50: 6.61 µM
[9]
  Log10 TGI: > -4.00
[9]; Homo sapiens, U-251, read-out: Log10 GI50 (converted)
  GI50: 12.3 µM
[10]; Homo sapiens, Malme-3M, read-out: Log10 GI50 (converted)
  GI50: 30.9 µM
[10]
  Log10 TGI: > -4.00
[11]; Homo sapiens, M14, read-out: Log10 GI50 (converted)
  GI50: 0.537 µM
[11]
  Log10 TGI: -5.07
[12]; Homo sapiens, UACC-257, 48 h, read-out: Log10 GI50 (converted)
  GI50: > 100 µM
[12]; Melanoma, 48 hours exposure
  Log10 TGI: > -4.00
[13]; Homo sapiens, UACC-62, read-out: Log10 GI50 (converted)
  GI50: 2.95 µM
[13]
  Log10 TGI: > -4.00
[14]
  GI50: 36.3 µM
[15]; Homo sapiens, OVCAR-5, read-out: Log10 GI50 (converted)
  GI50: 38.9 µM
[15]
  Log10 TGI: > -4.00
[16]; Homo sapiens, ACHN, read-out: Log10 GI50 (converted)
  GI50: 0.347 µM
[16]
  Log10 TGI: > -4.00
[17]; Homo sapiens, CAKI-1, read-out: Log10 GI50 (converted)
  GI50: 0.224 µM
[17]
  Log10 TGI: -4.87
[18]; Homo sapiens, UO-31, read-out: Log10 GI50 (converted)
  GI50: 2.51 µM
[18]
  Log10 TGI: > -4.00
[19]
  Log10 TGI: > -4.00
[20]
  Log10 TGI: > -4.00
[20]; Homo sapiens, MCF7, read-out: Log10 GI50 (converted)
  GI50: 1.12 µM
[21]; [30]
  Cures/Total (survivors equal or greater than 45 day life span): 1/6
  ILS (Increased Life Span percent above control): 103%
[21]; 25 mg/kg ip, twice a day, days 1 to 5 (control 13.3 days)
  Mean Survival Time: 27 days
[21]; 25 mg/kg/dose ip, twice daily for five days
  life span increase of the remaining five mice: 103%
[21]; of six mice treated with 25 mg/kg/dose
  long term survivors: one long term survivor
[22]
  sensitivity to (-)-OddC: extreme sensitivity
[23]
  sensitivity to (-)-OddC: exhibited sensitivity
[24]
  sensitivity to (-)-OddC: extreme sensitivity
[25]
  sensitivity to (-)-OddC: extreme sensitivity
[26]
  Log10 TGI: > -4.00
[27]
  Log10 TGI: > -4.00
[28]
  GI50: > 100 µM
[29]
  GI50: > 100 µM

Reference: patent publication US5817667A, “Compounds and methods for the treatment of cancer” (University of Georgia Research Foudation, priority 1994, dated 1998)
